In patent US8207154B2, “Catatonic bacteriochlorophyll derivatives” (Yeda Research and Development Co., Ltd., priority 2005, dated 2012):

What was measured:
[1] = system: H5V mouse endothelial cells; assay: Phototoxicity (cytophototoxicity) on endothelial cells, Neutral Red viability; assay type: cell-based; settings: endothelial cell cultures, FIG. 3C
Method: (i) Cell culture. H5V mouse endothelial cells were cultured as monolayers in Dulbecco's modified Eagle's medium (DMEM)/F12 containing 25 mM HEPES, pH 7.4, 10% fetal calf serum (FCS), glutamine (2 mM), penicillin (0.06 mg/ml), and streptomycin (0.1 mg/ml) (hereinafter referred to as the “culture medium”). The cells were grown at 37° C. in an 8% CO2-humidified atmosphere.
(a) Cells. To determine the photodynamic efficacy, cells were cultured in 96-well plates (40×10^3/well) and incubated in the dark in culture medium containing increasing concentrations of sensitizers 5, 7, 9 and 11, for a period of 1 min to 8 h. Unbound sensitizer was removed by washing the cells once with fresh culture medium. The plates were illuminated at room temperature, from their bottom side, for 10 min (650<λ<800 nm, 12 J/cm^2). The light source was a 100 W Halogen lamp (Osram, Germany) equipped with a <650 nm cutoff and a 4-cm water filter. The cultures were placed in the culture incubator and cell survival was determined 24 h after illumination, by Neutral Red viability assay. Cell survival was calculated as the percent of the dye accumulated in the untreated controls. Triplicate determinations were conducted and representative experiments are shown. […]
The phototoxicity of compounds 5, 7, 9, and 11 on H5V mouse endothelial cells was determined as described in section (iv) (a) above. […]

E. coli = assay: Phototoxicity on Gram-negative bacteria, colony counting; assay type: cell-based, E. coli XL-1
Method: (ii) Bacterial cultures. Bacteria of strains St. albus and E. coli XL-1 were cultured in liquid LB medium (E. coli in LB containing 12.5 μg tetracyclin/ml) to a final density of OD600 nm=0.5-0.9 (1 OD=8×10^8 bacteria/ml). The bacteria were spun down (4000×g, 5 min.) and resuspended in PBS.
(b) Bacterial. To determine the photodynamic efficacy, bacteria were diluted to aliquots of 300 μl containing about 10^7 bacteria, and incubated with increasing concentrations of sensitizer in plastic test tubes in the dark for 1 h at room temperature, and then illuminated at 70 mW/cm^2 for 15 min. Samples of the treated bacteria cultures were subsequently plated at different dilutions (50-200 bacteria/plate) on LB agar and cultured for 24 h at 37° C. for determination of bacterial survival by colony counting. Triplicate determinations were conducted and representative experiments are shown.
The phototoxicity of positively-charged compound 5 was tested on Gram-positive St. albus and Gram-negative E. coli bacteria in comparison to the negatively-charged Pd 3^1-oxo-15-methoxycarbonylmethyl-Rhodobacteriochlorin 13^1-(2-sulfoethyl)amide dipotassium salt (described in PCT/IL03/00973). Bacteria were incubated with increasing concentrations of the sensitizers for 1 h and illuminated or kept in the dark. […] Gram-positive bacteria St. albus, was 100 times more sensitive to compound 5 than Gram-negative E. coli. No phototoxicity was observed when bacteria were incubated and treated with the same sensitizers' concentration range without illumination (dark controls).

[2] = Octanol/water partition ratio; assay type: physicochemical
Excerpt: Optical absorption in water, λ (relative absorption): 753 (1.00), 519 (0.30), 354 (1.25) nm. Octanol/water partition ratio is 40/60. ESI-MS (+): 413.62 ([M-2×citrate]/2). Octanol/water partition ratio is 50/50. ESI-MS (+): 455.89 ([M-2×citrate]/2). Octanol/water partition ratio is 75/25.

[3] = Pharmacokinetics in rat blood after i.v. injection (fluorescence); assay type: in vivo, Wistar rats
Method: (ix) Pharmacokinetics. Anesthetized Wistar rats (n=3 per each time-point) were i.v. injected with compound 5 of the invention (0.6 mg/kg). […] Control blood samples were collected from three untreated rats and treated accordingly. The test tubes containing the blood samples were weighed again in order to calculate the exact sample mass. The blood samples were then frozen in liquid nitrogen and lyophilized. The lyophilized samples were extracted with methanol (1 ml each), vortexed and centrifuged. The supernatant was collected and analyzed by fluorescence measurements (Spectrofluorimeter SLM-8000, Aminco USA). The fluorescence emission spectra were recorded in a range of 650-850 nm, with excitation at 520 nm. Fluorescence of methanol and untreated blood extracts were used as blanks. A calibration curve with known concentrations of the sensitizer was prepared.

[4] = target: human serum albumin (HSA) (Homo sapiens, UniProt P02768); assay: Interaction with human serum albumin (aggregation state, spectrophotometric); assay type: binding; settings: in PBS, 3.2×10^−4 M, 0.1-5 mg HSA
Method: A solution of 5 in PBS (3.2×10^−4 M, 100 μl) was mixed with various amounts of human serum albumin (0.1, 0.5, 1, 2, and 5 mg). Aggregation, at high concentrations of 5 in aqueous solutions, is reflected by splitting of the original monomeric peak at 747 nm into two new peaks at 720 and 760 nm. The state of aggregation was followed spectrophotometrically over the range of albumin concentrations at room temperature in a 0.1 mm cuvette. The absorbance intensity values at the peak wavelengths were taken as an indication of the aggregation.
Addition of the albumin caused disaggregation of the sensitizer 5 in PBS (FIG. 2). The absorption spectra of the solutions containing increasing amounts of albumin resembled the spectrum of the monomeric pigment 5 in methanol.

Chain of human serum albumin (HSA) (P02768 25-609): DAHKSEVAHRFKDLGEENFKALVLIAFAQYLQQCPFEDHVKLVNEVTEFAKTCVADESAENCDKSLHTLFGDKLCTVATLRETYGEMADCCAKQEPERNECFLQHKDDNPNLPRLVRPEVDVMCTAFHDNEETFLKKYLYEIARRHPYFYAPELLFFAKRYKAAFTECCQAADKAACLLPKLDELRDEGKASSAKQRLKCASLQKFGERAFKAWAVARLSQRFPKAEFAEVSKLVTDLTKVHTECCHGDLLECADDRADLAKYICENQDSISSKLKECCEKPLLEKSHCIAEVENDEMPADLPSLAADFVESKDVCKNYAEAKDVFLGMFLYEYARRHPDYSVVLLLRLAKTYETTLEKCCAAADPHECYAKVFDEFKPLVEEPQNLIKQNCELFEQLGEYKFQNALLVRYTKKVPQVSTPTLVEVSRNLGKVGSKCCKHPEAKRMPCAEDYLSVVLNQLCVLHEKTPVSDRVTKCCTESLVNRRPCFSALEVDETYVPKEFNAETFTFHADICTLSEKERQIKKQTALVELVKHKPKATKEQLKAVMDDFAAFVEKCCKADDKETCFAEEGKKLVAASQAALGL

With “3^1-Oxo-15-methoxycarbonylmethyl-Rhodo-bacteriochlorin 13^1,17^3-di(2-N^3-trimethylammoniumethyl)amide dicitrate salt [Compound 5]” the “incubation time at which very high PDT efficiency is reached” value [1] was “less than 5 minutes”, the “death of E. coli” value (E. coli; 10 μM, illuminated) was ~100% and the phototoxic concentration (E. coli; 1 h incubation, illuminated 15 min at 70 mW/cm^2, read-out: Kd (phototoxicity)) was 1700 nM. The Octanol/water partition ratio ([2]; dicitrate salt) was 40/60, the Octanol/water partition ratio ([2]; listed as 2, dicitrate salt) was 75/25 and the clearance kinetics ([3]; 24 h after i.v. administration) was “bicompartmental distribution”. For the same substance, the sensitizer cleared ([3]; within 30 min after i.v. injection (0.6 mg/kg)) was “about 60%” and the “aggregation state on addition of albumin” value [4] was “disaggregation”.
